# Laboratory results reported in paper PMC7279038, “Antioxidant and Neuroprotective Effects Induced by Cannabidiol and Cannabigerol in Rat CTX-TNA2 Astrocytes and Isolated Cortexes” (International Journal of Molecular Sciences, 2020).
# What was measured:
# [1] = biological target: T1, BChE (butyrylcholinesterase) (Equus caballus, UniProt P81908); experiment: BChE inhibition, colorimetric cholinesterase assay; assay type: biochemical, horse; conditions: mean ± S.D., n = 3
# T1 construct: horse serum butyrylcholinesterase, EC 3.1.1.8, Sigma Aldrich S.r.L; purchased Sigma Aldrich S.r.L; host or cells: horse serum
# [2] = DPPH scavenging ability test; conditions: mean ± S.D., n = 3
# Procedure: For the 1,1-diphenyl-2-picrylhydrazyl (DPPH) radical scavenging assay, sample solution was added to 4 mL of a 0.004% methanol solution of DPPH. The sample absorbance was read at 517 nm after a 30 min incubation at room temperature in the dark. DPPH radical scavenging activity was expressed as IC50 values.
# [3] = ABTS scavenging ability test; conditions: mean ± S.D., n = 3
# Procedure: For the 2,2′-azino-bis(3-ethylbenzothiazoline) 6-sulfonic acid (ABTS) radical scavenging assay, ABTS+ was produced directly by reacting 7 mM ABTS solution with 2.45 mM potassium persulfate and allowing the mixture to stand for […] in the dark at room temperature. Prior to beginning the assay, ABTS solution was diluted with methanol to an absorbance of 0.700 ± 0.02 at 734 nm. Sample solution was added to ABTS solution (2 mL) and mixed. The sample absorbance was read at 734 nm after a 30 min incubation at room temperature. The ABTS radical scavenging activity was expressed as IC50 values.
# [4] = Ferric reducing antioxidant power (FRAP); conditions: mean ± S.D., n = 3
# Procedure: For the ferric reducing antioxidant power (FRAP) activity assay, sample solution was added to premixed FRAP reagent (2 mL) containing acetate buffer (0.3 M, pH 3.6), 2,4,6-tris(2-pyridyl)-S-triazine (TPTZ) (10 mM) in 40 mM HCl and ferric chloride (20 mM) in a ratio of 10:1:1 (v/v/v). Then, the sample absorbance was read at 593 nm after a 30 min incubation at room temperature. FRAP activity was expressed as IC50 values.
# Bax = experiment: Western blotting analysis of Bax; assay type: cell-based, rat; conditions: CTX-TNA2 challenged with H2O2, 24 h; 1000 nM CBD, 1 nM CBG
# Procedure: […] The stock solutions were diluted in cell medium to the point that the concentration of DMSO in the samples was less than 0.0003%. Therefore, the addition of DMSO to the control samples was not necessary.
# The western blowing analysis of Bax and Cyt C was carried out as previously reported. Specifically, CTX-TNA2 lysates (20 µg) were boiled fof 5 min in sample buffer, made of tris-HCl pH 6.8, glycerol, 2-mercaptoethanol, SDS and bromophenol blue. They were then electrophoresed and transferred to nitrocellulose membranes. […] Immunoreactive bands were identified using the ECL detection system (Euroclone, Pero, Milano, Italy) and analyzed by densitometry. Densitometric values were quantified by the CHEMIDOC XRS system and expressed as Integrated Optical Intensity using the QuantiOne 1-D analysis software (Bio-rad Laboratories, Richmond, CA, USA). […] Results are expressed as the mean ± SD.
# [5] = test system: isolated rat prefrontal cortex, 5-HT; experiment: H2O2-induced reduction in 5-HT level in isolated cortexes; conditions: hydrogen peroxide 300 µM; CBD 1000 nM, CBG 1 nM
# Procedure: Sprague–Dawley rats (200–250 g) were sacrificed by CO2 inhalation and isolated prefrontal cortex specimens were immediately explanted and exposed to 300 µM H2O2 and different concentrations of CBD (1–1000 nM) and CBG (1–1000 nM) for one hour, at 37 °C. The nitrite concentration in the resuspension buffer was determined by colorimetric Griess assay. Specifically, cortex specimens were homogenized for 2 min with Potter–Elvehjem homogenizer in 2 mL DMEM buffer. The homogenate was centrifuged at 4500 g for 10 min and nitrite production was determined in the supernatant fraction by mixing 50 µL of the assay buffer with 50 µL of Griess reagent (1.5% sulfanilamide in 1M HCl plus 0.15% N-(1-naphthyl) ethylenediamine dihydrochloride in distilled water, v/v). After 10 min incubation at room temperature, the absorbance at 540 nm was determined and nitrite concentrations were calculated from a sodium nitrite standard curve. […]
# Tissue 3-HK, 5-HT and 5HIIA levels were analyzed through an HPLC apparatus consisting of a Jasco (Tokyo, Japan) PU-2080 chromatographic pump and an ESA (Chelmsford, MA, USA) Coulochem III coulometric detector, equipped with a microdialysis cell (ESA-5014b), a porous graphite working electrode and a solid state palladium reference electrode. The analytical conditions for identification and quantification were selected according to previous studies. […]
# T1 sequence (P81908 whole entry): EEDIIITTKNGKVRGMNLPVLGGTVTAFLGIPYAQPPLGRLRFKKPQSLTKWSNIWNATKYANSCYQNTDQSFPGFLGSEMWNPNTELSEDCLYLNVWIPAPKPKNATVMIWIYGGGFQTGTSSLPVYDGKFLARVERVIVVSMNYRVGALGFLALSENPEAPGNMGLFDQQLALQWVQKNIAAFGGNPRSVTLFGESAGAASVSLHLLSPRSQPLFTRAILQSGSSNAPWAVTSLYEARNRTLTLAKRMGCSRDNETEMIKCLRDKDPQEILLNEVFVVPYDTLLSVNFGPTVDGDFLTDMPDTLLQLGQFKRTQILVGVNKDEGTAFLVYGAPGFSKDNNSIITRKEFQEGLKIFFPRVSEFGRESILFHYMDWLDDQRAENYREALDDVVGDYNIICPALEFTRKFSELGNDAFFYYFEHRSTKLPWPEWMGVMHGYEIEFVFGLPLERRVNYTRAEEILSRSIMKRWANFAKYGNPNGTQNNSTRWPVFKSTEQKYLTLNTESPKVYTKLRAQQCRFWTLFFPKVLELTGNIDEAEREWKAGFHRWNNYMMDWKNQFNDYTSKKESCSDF
smiles,measurement,setting,value
"C=C(C)[C@@H]1CCC(C)=C[C@H]1c1c(O)cc(CCCCC)cc1O [CBD, Cannabidiol]",IC50,[1],1880 ± 110 µM
same,IC50,[2],1870 ± 40 µM
same,IC50,[3],1040 ± 10 µM
same,IC50,[4],> 2000 µM
same,Bax expression,Bax,keep Bax expression at values comparable to the control sample
same,effect on H2O2-induced 5-HT depletion,[5],blunting effect on 5-HT depletion
"CCCCCc1cc(O)c(C/C=C(\C)CCC=C(C)C)c(O)c1 [CBG, cannabigerol]",IC50,[1],1480 ± 110 µM
same,IC50,[2],1950 ± 10 µM
same,IC50,[3],1030 ± 10 µM
same,IC50,[4],> 2000 µM
same,Bax expression,Bax,expression does not differ from the control sample
same,effect on H2O2-induced 5-HT depletion,[5],same effect at the concentration of 1 nM
